According to ChEMBL document CHEMBL1201862, “PubChem BioAssay data set” (2004):
Activity calls are given as the source filed them. Cut-off read from the data, not from the text of the source, for most assays here: actives have a measured EC50 and inactives only a lower limit.

Tests used:
[1] = molecular target: T1, Zinc finger protein mex-5 (Caenorhabditis elegans, UniProt Q9XUB2); assay: MEX-5/TCR-2 RNA interaction inhibitors, dose response, biochemical, C. elegans, fluorescence polarization (AID 1960)
T1 sequence (Q9XUB2 whole entry): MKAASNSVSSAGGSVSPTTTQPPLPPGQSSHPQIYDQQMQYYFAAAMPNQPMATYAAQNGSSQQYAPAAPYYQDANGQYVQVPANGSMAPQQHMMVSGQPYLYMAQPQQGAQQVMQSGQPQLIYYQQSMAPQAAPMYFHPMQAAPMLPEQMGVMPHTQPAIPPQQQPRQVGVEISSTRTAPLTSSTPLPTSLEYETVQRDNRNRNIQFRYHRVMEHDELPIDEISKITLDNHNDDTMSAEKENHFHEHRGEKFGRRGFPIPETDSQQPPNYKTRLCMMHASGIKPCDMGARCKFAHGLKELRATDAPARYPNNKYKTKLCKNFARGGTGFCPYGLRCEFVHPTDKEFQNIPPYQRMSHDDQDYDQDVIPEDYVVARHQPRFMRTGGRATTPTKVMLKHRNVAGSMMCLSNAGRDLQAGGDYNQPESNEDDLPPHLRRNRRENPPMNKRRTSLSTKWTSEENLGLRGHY

[2] = molecular target: T2, RNA-binding protein pos-1 (Caenorhabditis elegans, UniProt G5EF15); assay: inhibitors of POS-1/mex-3 RNA binding, dose response, biochemical, fluorescence polarization (AID 1964);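 note: purified POS-1 fused to maltose binding protein made in E. coli; potency of compounds blocking POS-1 binding to fluorescent RNA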
T2 sequence (G5EF15 whole entry): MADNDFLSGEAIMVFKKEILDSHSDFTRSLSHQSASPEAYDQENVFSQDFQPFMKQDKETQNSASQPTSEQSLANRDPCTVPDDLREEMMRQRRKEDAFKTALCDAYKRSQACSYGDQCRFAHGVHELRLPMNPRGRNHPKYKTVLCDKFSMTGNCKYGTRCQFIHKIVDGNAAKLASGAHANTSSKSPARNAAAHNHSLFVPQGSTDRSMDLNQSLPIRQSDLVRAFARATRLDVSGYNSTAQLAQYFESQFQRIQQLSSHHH

Protein skinhead-1 = molecular target: T3, Protein skinhead-1 (Caenorhabditis elegans, UniProt P34707); assay type: functional
T3 sequence (P34707 whole entry): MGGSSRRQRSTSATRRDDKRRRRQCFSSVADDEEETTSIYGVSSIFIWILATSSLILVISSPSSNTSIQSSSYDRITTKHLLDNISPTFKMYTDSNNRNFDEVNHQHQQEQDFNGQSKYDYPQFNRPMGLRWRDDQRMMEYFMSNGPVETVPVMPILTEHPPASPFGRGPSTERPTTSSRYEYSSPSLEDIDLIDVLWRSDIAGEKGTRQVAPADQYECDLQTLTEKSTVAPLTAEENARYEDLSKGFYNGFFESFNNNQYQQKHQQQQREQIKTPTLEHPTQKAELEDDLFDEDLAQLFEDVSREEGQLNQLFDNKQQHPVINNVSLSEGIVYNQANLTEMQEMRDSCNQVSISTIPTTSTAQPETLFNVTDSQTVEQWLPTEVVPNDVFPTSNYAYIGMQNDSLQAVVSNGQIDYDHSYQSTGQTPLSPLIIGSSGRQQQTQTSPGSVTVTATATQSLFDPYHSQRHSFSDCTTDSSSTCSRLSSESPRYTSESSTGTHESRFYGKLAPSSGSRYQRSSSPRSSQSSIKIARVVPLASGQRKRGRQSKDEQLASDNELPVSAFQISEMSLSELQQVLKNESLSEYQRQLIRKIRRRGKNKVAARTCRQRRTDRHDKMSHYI

H4 = assay: Luminescence Cell-Based Dose Response HTS to Identify Activators of 5'UTR Stem-Loop Driven Prion Protein mRNA Translation in H4 Neuroglioblastoma Cells. [Related pubchem assays: 1829 (Project Summary), 1814 (Primary HTS)]; assay type: functional; details: Homo sapiens
[3] = Luminescence Cell-Based Dose Confirmation HTS to Identify Activators of 5'UTR Stem-Loop Driven Alpha-Synuclein mRNA Translation in H4 Neuroglioblastoma Cells. [Related pubchem assays: 1829 (Project Summary), 1814 (Primary HTS)]; assay type: functional
[4] = Luminescence Cell-Based Dose Response HTS to Identify Activators of Luciferase Translation or Activity in H4 […] Cells. [Related pubchem assays: 1829 (Project Summary), 1814 (Primary HTS)]; assay type: functional
[5] = inhibitors of intracellular T. cruzi replication, confirmation, NIH3T3 host cells, beta-gal luminescence (AID 2044); assay type: functional, cell-based;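 note: intracellular parasites grown in NIH/3T3 mouse fibroblasts as host cells; luminescent beta-galactosidase reporter signal from transgenic T. cruzi replicating inside host cells; inhibitors lower the luminescence signal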
[6] = cytotoxicity toward NIH3T3 fibroblasts, dose response, counter-screen, cell-based, ATP luminescence, mouse fibroblasts (AID 2010); assay type: functional;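 note: cells exposed to compound for about 90 hours before reading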
Paired box protein Pax-8 = Paired box protein Pax-8 (Homo sapiens, UniProt Q06710); assay: inhibitors of PAX8-driven TPO luciferase reporter, dose response, RMG-I cells, cherry-pick (AID 687027); assay type: functional, cell-based;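 note: luciferase reporter driven by Pax8 target thyroperoxidase promoter measured by SteadyGlo luminescence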
Chain of Paired box protein Pax-8 (Q06710 whole entry): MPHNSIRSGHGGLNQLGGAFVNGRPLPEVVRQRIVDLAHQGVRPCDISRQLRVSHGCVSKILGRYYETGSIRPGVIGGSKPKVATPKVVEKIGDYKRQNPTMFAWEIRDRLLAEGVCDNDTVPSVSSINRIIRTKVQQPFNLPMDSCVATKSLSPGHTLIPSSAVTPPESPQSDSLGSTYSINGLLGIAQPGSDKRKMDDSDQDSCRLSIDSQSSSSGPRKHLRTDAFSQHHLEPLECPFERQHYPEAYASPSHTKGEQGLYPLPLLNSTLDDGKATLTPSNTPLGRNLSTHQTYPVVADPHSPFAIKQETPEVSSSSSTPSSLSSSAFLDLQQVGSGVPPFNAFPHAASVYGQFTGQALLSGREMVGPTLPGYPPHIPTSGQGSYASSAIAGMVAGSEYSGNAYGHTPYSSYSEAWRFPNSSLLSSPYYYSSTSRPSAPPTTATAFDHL

BJ [7] = assay: cytotoxicity toward BJ-TERT-LT-ST fibroblasts, dose response, cell-based, RAS-independent, luminescence (AID 1935); assay type: functional; details: Homo sapiens;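 note: BJ fibroblasts immortalized with TERT plus LT and ST oncogenes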
[8] = cytotoxicity toward DRD oncogenic fibroblasts, dose response, cell-based, non-viral oncogenic, luminescence (AID 1934); assay type: functional; details: Homo sapiens
BJ [9] = assay: cells; assay type: functional, cell-based; details: Homo sapiens
BJ [10] = assay: cytotoxicity toward BJ-TERT fibroblasts, dose response, cell-based, RAS-independent, luminescence (AID 1933); assay type: functional; details: Homo sapiens

| SMILES | EC50 [1] | EC50 [2] | IC50 (Protein skinhead-1) | also measured |
| --- | --- | --- | --- | --- |
| O=C(O)CCc1ccc(-c2cccs2)n1-c1ccc(C(=O)O)cc1 | > 300 µM (not active) | > 300 µM (not active) | – | – |
| Cc1cc(C)c(NC(=O)COC(=O)C2CCN(c3ccc(C(F)(F)F)cn3)CC2)c(Cl)c1 | – | – | > 100 µM (inactive) | – |
| CCC1(C)Cc2ccccc2-c2nc(NCCO)n(-c3ccc(C)cc3)c(=O)c21 (centres undefined) | – | – | > 100 µM (inactive) | EC50 (H4): > 120 µM (not active); EC50 [3]: > 120 µM (not active); EC50 [4]: > 120 µM (not active) |
| O=C(NCCF)C1Nc2ccc(OC(F)(F)F)cc2C2C=CCC12 (centres undefined) | > 300 µM (not active) | > 300 µM (not active) | – | – |
| CC(C)(C)OC(=O)NCCCCC1=CC2=CC(=O)C(C)(OC(=O)c3cnc4ccccc4n3)C(=O)C2=CO1 (centres undefined) | 15 µM (active) | 17.2 µM (active) | – | – |
| Cc1ccc(NC(=S)NC(=O)C2CC2)c(C)c1 | – | – | > 100 µM (inactive) | – |
| N=c1c(S(=O)(=O)c2ccc(Cl)cc2)cc2c(=O)n3ccccc3nc2n1CCc1ccccc1 | 1.39 µM (active) | > 300 µM (inconclusive) | – | EC50 [5]: 377 nM (active); EC50 [6]: > 60 µM (not active) |
| c1ccc(-c2ccc(-c3ccncn3)cc2)cc1 | – | – | 15.2 µM (active) | – |
| Cc1ccc(NC(=O)CSCC(=O)Nc2ccccc2C(=O)N2CCCCC2)cc1 | – | – | > 100 µM (inactive) | – |
| C[C@H]1CCCCO[C@@H](CN(C)C(=O)NC2CCCCC2)[C@@H](C)CN([C@@H](C)CO)C(=O)c2cc(NC(=O)Nc3ccc(C(F)(F)F)cc3)ccc2O1 | – | – | – | AC50 (Paired box protein Pax-8): 2.54 µM (active) |
| C=C1[C@@H](C)C2[C@H](Cc3ccccc3)NC(=O)[C@]23OC(=O)CC[C@H](O)CCC[C@H](C)C/C=C/[C@H]3[C@@H]1O (some centres undefined) | – | – | – | EC50 (BJ [7]): 17.2 µM (active); EC50 [8]: 12.2 µM (inconclusive); EC50 (BJ [9]): > 150 µM (not active); EC50 (BJ [10]): 8.36 µM (inconclusive) |
| CCOC(=O)N1CCN(C(=O)Nc2ccc(Cl)cc2)CC1 | – | – | > 100 µM (inactive) | – |
